pIC50: −log10 of the molar value.
Target: T1, human DP2 receptor (Homo sapiens, UniProt Q9Y5Y4)
T1 construct: expressed in transfected cells
T1 sequence (Q9Y5Y4 1-395): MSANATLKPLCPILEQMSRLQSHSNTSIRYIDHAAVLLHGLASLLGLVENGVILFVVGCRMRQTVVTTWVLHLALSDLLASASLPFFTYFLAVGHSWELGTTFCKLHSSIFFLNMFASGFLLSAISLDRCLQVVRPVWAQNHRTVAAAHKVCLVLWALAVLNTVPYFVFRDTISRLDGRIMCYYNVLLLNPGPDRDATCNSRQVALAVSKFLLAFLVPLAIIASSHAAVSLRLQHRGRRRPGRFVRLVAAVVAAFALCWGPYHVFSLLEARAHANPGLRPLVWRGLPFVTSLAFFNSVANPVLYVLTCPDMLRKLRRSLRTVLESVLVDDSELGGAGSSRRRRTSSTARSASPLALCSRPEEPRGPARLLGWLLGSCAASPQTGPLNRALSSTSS
Assay: DP2/CRTH2 binding assay (radioligand binding with [3H]PGD2)
Conditions: [3H]PGD2 binding, membranes of HEK293 cells expressing recombinant human DP2; read-out: hDP2
Experimental: The ability of a compound to bind to the human DP2 receptor is assessed via a radioligand binding assay using [^3H]PGD2. HEK293 cells stably expressing recombinant human DP2 are resuspended in 10 mM Hepes, 7.4 containing 1 mM DTT, lysed and centrifuged at 75,000×g to pellet the membranes. The membranes are resuspended in 10 mM Hepes, 7.4 containing 1 mM DTT and 10% glycerol to approximately 5 mg protein/ml. Membranes (2-10 μg protein/well) are incubated in 96-well plates with 1 nM [^3H]PGD2 and test compound in Assay Buffer (50 mM Hepes, 10 mM MnCl2, 1 mM EDTA, plus or minus 0.2% human serum albumin, pH 7.4) for 60 minutes at room temperature. The reactions are terminated by rapid filtration through Whatman GF/C glass fibre filter plates. The filter plates were pre-soaked in 0.33% polythylenimine for 30 minutes at room temperature then washed in Wash Buffer (50 mM Hepes, 0.5 M NaCl pH 7.4) prior to harvesting. After harvesting, the filter plates are washed 3 times with 1 ml cold Wash Buffer then dried. Scintillant is then added to the plates and the radioactivity retained on the filters is determined on a Packard TopCount (Perkin Elmer). Specific binding is determined as total radioactive binding minus non-specific binding in the presence of 10 μM PGD2. IC50s were determined using GraphPad prism analysis of drug titration curves.

| SMILES | pIC50 |
| --- | --- |
| CC(C)(C)NC(=O)c1ccc(-c2cncc(CC(=O)O)c2)c(CN(Cc2ccccc2)C(=O)C2CC2)c1 [Compound 7, (5-{2-[(N-Benzyl-N-cyclopropanecarbonyl-amino)-methyl]-4-tert-butylcarbamoyl-phenyl}-pyridin-3-yl)-acetic acid] | 6.00 to 6.52 |
| CCN(Cc1cc(C(F)(F)F)ccc1-c1cncc(CC(=O)O)c1)C(=O)OC(C)(C)C [Compound 13, (5-{2-[(N-tert-Butoxycarbonyl-N-ethyl-amino)-methyl]-4-trifluoromethyl-phenyl}-pyridin-3-yl)-acetic acid] | > 6.52 |
| CCN(Cc1cc(C(F)(F)F)ccc1-c1cncc(CC(=O)O)c1)C(=O)COC [Compound 34, [5-(2-{[N-Ethyl-N-(2-methoxy-acetyl)-amino]-methyl}-4-trifluoromethyl-phenyl)-pyridin-3-yl]-acetic acid] | 6.00 to 6.52 |
| CC(=O)N(Cc1ccccc1)Cc1cc(C(F)(F)F)ccc1-c1cnc(Cl)c(CC(=O)O)c1 [Compound 20, (5-{2-[(N-Acetyl-N-benzyl-amino)-methyl]-4-trifluoromethyl-phenyl}-2-chloro-pyridin-3-yl)-acetic acid] | > 6.52 |
| CNC(=O)c1ccc(-c2cncc(CC(=O)O)c2)c(CN(Cc2ccccc2)C(=O)C2CC2)c1 [Compound 6, (5-{2-[(N-Benzyl-N-cyclopropanecarbonyl-amino)-methyl]-4-methylcarbamoyl-phenyl}-pyridin-3-yl)-acetic acid] | 6.00 to 6.52 |
| O=C(O)Cc1cncc(-c2ccc(C(F)(F)F)cc2CN(Cc2ccccc2)C(=O)C2CC2)c1 [Compound 17, (5-{2-[(N-Benzyl-N-cyclopropanecarbonyl-amino)-methyl]-4-trifluoromethyl-phenyl}-pyridin-3-yl)-acetic acid] | > 6.52 |
| CCN(Cc1cc(C(F)(F)F)ccc1-c1cncc(CC(=O)O)c1)C(=O)CCc1ccccc1 [Compound 25, [5-(2-{[N-Ethyl-N-(3-phenyl-propionyl)-amino]-methyl}-4-trifluoromethyl-phenyl)-pyridin-3-yl]-acetic acid] | > 6.52 |
| CCN(Cc1cc(C(F)(F)F)ccc1-c1cncc(CC(=O)O)c1)C(=O)Cc1ccccn1 [Compound 33, [5-(2-{[N-Ethyl-N-(2-pyridin-2-yl-acetyl)-amino]-methyl}-4-trifluoromethyl-phenyl)-pyridin-3-yl]-acetic acid] | > 6.52 |
| CCOCC(=O)N(CC)Cc1cc(C(F)(F)F)ccc1-c1cncc(CC(=O)O)c1 [Compound 35, [5-(2-{[N-(2-Ethoxy-acetyl)-N-ethyl-amino]-methyl}-4-trifluoromethyl-phenyl)-pyridin-3-yl]-acetic acid] | 6.00 to 6.52 |
| N#Cc1ccc(-c2cncc(CC(=O)O)c2)c(CN(Cc2ccccc2)C(=O)C2CC2)c1 [Compound 3, (5-{2-[(N-Benzyl-N-cyclopropanecarbonyl-amino)-methyl]-4-cyano-phenyl}-pyridin-3-yl)-acetic acid] | > 6.52 |
| CCN(Cc1cc(SC(C)(C)C)ccc1-c1cncc(CC(=O)O)c1)C(=O)C1CC1 [Compound 22, (5-{4-tert-Butylsulfanyl-2-[(N-cyclopropanecarbonyl-N-ethyl-amino)-methyl]-phenyl}-pyridin-3-yl)-acetic acid] | > 6.52 |
| CCN(Cc1cc(C(F)(F)F)ccc1-c1cncc(CC(=O)O)c1)C(=O)c1cc(OC)nc(OC)n1 [Compound 30] | < 6.00 |
| CCN(Cc1cc(C(F)(F)F)ccc1-c1cc(CC(=O)O)cnc1OC)C(C)=O [Compound 41, (5-{2-[(N-Acetyl-N-ethyl-amino)-methyl]-4-trifluoromethyl-phenyl}-6-methoxy-pyridin-3-yl)-acetic acid] | 6.00 to 6.52 |
| CCOc1cc(OCC)nc(CC(=O)N(CC)Cc2cc(C(F)(F)F)ccc2-c2cncc(CC(=O)O)c2)n1 [Compound 32, {5-[2-({N-[2-(4,6-Diethoxy-pyrimidin-2-yl)-acetyl]-N-ethyl-amino}-methyl)-4-trifluoromethyl-phenyl]-pyridin-3-yl}-acetic acid] | > 6.52 |

— patent US8049015B2 (Panmira Pharmaceuticals, LLC, priority 2008, dated 2011)
